From US20250304549A1, “HYDROXYAMIDE DERIVATIVE AND USE THEREOF” (SICHUAN HUIYU PHARMACEUTICAL CO., LTD., priority 2022, published 2025)
Structures can show the parent of a compound that is named as a salt.

What was measured:
LSD1 = LSD1 (Homo sapiens (Human), UniProt O60341); assay: In vitro enzyme inhibition assay - LSD1 (HTRF); format: biochemical
NCI-H1417 cells = assay: In vitro cell inhibition assay - H1417 cell proliferation (CellTiter-Glo); format: cell-based
Method in brief: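 Cells exposed to 8 compound concentrations (5-fold dilutions) in BEGM with 10% FBS for 7 days at 37° C., 5% CO2. Viable cells measured by CellTiter-Glo luminescence; inhibition versus no-inhibitor and no-cell controls, IC50 fitted.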

NCI-H69 cells = assay: In vitro cell inhibition assay - NCI-H69 cell proliferation (CellTiter-Glo); format: cell-based
Method in brief: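 Over 7 days at 37° C. and 5% CO2, cells grew in RPMI-640 supplemented with 20% FBS in the presence of eight 5-fold-spaced compound concentrations.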

DU145 cells = assay: In vitro cell inhibition assay - DU145 cell proliferation (CellTiter-Glo); format: cell-based
Method in brief: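 Viability read-out was CellTiter-Glo luminescence after a 6-day, 37° C exposure of DU145 cells (1×10^3/well, 10% FBS RPMI-640) to 8 compound concentrations in 5-fold steps.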

NCI-H526 cells = assay: In vitro cell inhibition assay - NCI-H526 cell proliferation (CellTiter-Glo); format: cell-based; settings: H526 small cell lung cancer cell proliferation, 5 days
Method in brief: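 NCI-H526 cells plated at 1×10^3 per well overnight, then treated with 8 concentrations (5-fold dilutions) in RPMI-640 with 10% FBS for 5 days at 37° C., 5% CO2. Viable cells quantified by CellTiter-Glo luminescence; IC50 fitted from inhibition rates relative to no-inhibitor and no-cell controls.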

pan-HDAC = assay: In vitro enzyme inhibition assay - HDAC (HDAC-Glo I/II), pan-HDAC; format: biochemical
Method in brief: (§1)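 Eight compound concentrations (5-fold gradient; 1 mM DMSO stock) were assayed by HDAC-Glo I/II luminescence. IC50 was obtained by four-parameter fitting.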

HDAC8 = HDAC8 (Homo sapiens (Human), UniProt Q9BY41); assay: In vitro enzyme inhibition assay - HDAC (HDAC-Glo I/II), HDAC8; format: biochemical; settings: read-out: HDAC IC50 (nM) HDAC 8
Sequence of HDAC8 (Q9BY41 whole entry): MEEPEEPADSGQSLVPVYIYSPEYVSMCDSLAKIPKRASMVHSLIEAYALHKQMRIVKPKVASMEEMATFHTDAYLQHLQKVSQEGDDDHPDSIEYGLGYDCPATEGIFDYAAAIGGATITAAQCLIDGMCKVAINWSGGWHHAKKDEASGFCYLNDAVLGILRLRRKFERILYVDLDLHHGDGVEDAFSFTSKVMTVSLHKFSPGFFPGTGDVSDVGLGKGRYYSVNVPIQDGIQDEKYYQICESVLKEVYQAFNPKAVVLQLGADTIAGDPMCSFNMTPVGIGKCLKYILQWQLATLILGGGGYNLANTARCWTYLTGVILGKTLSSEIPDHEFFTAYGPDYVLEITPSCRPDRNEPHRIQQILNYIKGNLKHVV
Method in brief: as §1

[1] = Homo sapiens, NCI-H1417, H1417 small cell lung cancer cell proliferation
[2] = Homo sapiens, NCI-H69, H69 small cell lung cancer cell proliferation
[3] = Homo sapiens, DU-145, Du145 prostate cancer cell proliferation
[4] = H1417 small cell lung cancer cell proliferation
[5] = H69 small cell lung cancer cell proliferation
[6] = Du145 prostate cancer cell proliferation

Row | SMILES | IC50 (LSD1) | IC50 (NCI-H1417 cells; [1]) | IC50 (NCI-H69 cells; [2]) | IC50 (DU145 cells; [3]) | IC50 (NCI-H526 cells; Homo sapiens, NCI-H526, 120 h) | IC50 (pan-HDAC) | IC50 (HDAC8) | IC50 (NCI-H1417 cells; [4]) | IC50 (NCI-H69 cells; [5]) | IC50 (DU145 cells; [6]) | IC50 (NCI-H526 cells)
1 | COc1ccc(-c2cnc(N3CCC(NCc4ccc(/C=C/C(=O)NO)cc4)CC3)c(C#N)c2-c2ccc(C#N)c(F)c2)cc1O [Example 37, (E)-3-(4-(((1-(3-cyano-4-(4-cyano-3-fluorophenyl)-5-(3-hydroxy-4-methoxyphenyl)pyridin-2-yl)piperidin-4-yl)amino)methyl)phenyl)-N-hydroxyacrylamide hydrochloride] | 1.95 nM | 6.56 nM | 8.52 nM | 26 nM | 10.3 nM |  |  |  |  |  | 
2 | COc1ccc(-c2cnc(N3CCC(NCc4ccc(/C=C/C(=O)NO)cc4)CC3)c(F)c2-c2ccc(C#N)c(F)c2)cc1O [Example 76, (E)-3-(4-(((1-(4-(4-cyano-3-fluorophenyl)-3-fluoro-5-(3-hydroxy-4-methoxyphenyl)pyridin-2-yl)piperidin-4-yl)amino)methyl)phenyl)-N-hydroxyacrylamide formate] |  | 11.7 nM | 3.96 nM | 11 nM | 8.27 nM |  |  |  |  |  | 
3 | COc1ccc(-c2cnc(N3CCC(NCc4ccc(/C=C/C(=O)NO)cc4)CC3)cc2-c2ccc(C#N)c(F)c2)cc1O [Example 80, (E)-3-(4-(((1-(4-(4-cyano-3-fluorophenyl)-5-(3-hydroxy-4-methoxyphenyl)pyridin-2-yl)piperidin-4-yl)amino)methyl)phenyl)-N-hydroxyacrylamide formate] |  | 14 nM | 27.8 nM | 56.5 nM | 29.3 nM | 14.9 nM | 165 nM |  |  |  | 
4 | COc1ccc(-c2ccc(N3CCC(NCc4ccc(/C=C/C(=O)NO)cc4)CC3)c(C#N)c2-c2ccc(C#N)c(F)c2)cc1O [Example 84, (E)-3-(4-(((1-(3′,4″-dicyano-3″-fluoro-3-hydroxy-4-methoxy-[1,1′:2′,1″-terphenyl]-4′-yl)piperidin-4-yl)amino)methyl)phenyl)-N-hydroxyacrylamide] | 0.62 nM | 4 nM | 32.9 nM | 116 nM | 68.4 nM | 5.45 nM | 73.6 nM |  |  |  | 
5 | N#Cc1ccc(-c2c(-c3ccc(/C=C/C(=O)NO)c(O)c3)cnc(N3CCC(NCc4ccc(/C=C/C(=O)NO)cc4)CC3)c2C#N)cc1F [Example 90] |  | 42 nM | 6.49 nM | 45.3 nM | 34.6 nM |  |  |  |  |  | 
6 | COc1cc(-c2cnc(N3CCC(NCc4cnc(/C=C/C(=O)NO)nc4)CC3)c(C#N)c2-c2ccc(C#N)c(F)c2)ccc1O [Example 96, (E)-3-(5-((1-(3-Cyano-4-(4-cyano-3-fluorophenyl)-5-(4-hydroxy-3-methoxyphenyl)pyridin-2-yl)piperidin-4-yl)amino)methyl) pyrimidin-2-yl)-N-hydroxyacrylamide formate] | 39.9 nM | 74.2 nM | 101 nM | 149 nM | 108 nM | 16.4 nM | 16.3 nM |  |  |  | 
7 | COc1ccc(-c2cnc(N3CCC(NCc4ccc(/C=C/C(=O)NO)nc4)CC3)c(C#N)c2-c2ccc(C#N)c(F)c2)cc1O [Example 117, (E)-3-(5-((1-(3-Cyano-4-(4-cyano-3-fluorophenyl)-5-(3-hydroxy-4-methoxyphenyl)pyridin-2-yl)piperidin-4-yl)amino)methyl) pyridin-2-yl)-N-hydroxyacrylamide formate] | 0.36 nM |  |  |  |  | 0.8 nM | 13 nM | 1.7 nM | 4.21 nM | 10.4 nM | 4.54 nM
8 | COc1ncc(-c2cnc(N3CCC(NCc4ccc(/C=C/C(=O)NO)cc4)CC3)c(C#N)c2-c2ccc(C#N)c(F)c2)cc1O [Example 123, (E)-3-(4-((1-(5-Cyano-4-(4-cyano-3-fluorophenyl)-5′-hydroxy-6′-methoxy-[3,3′-bipyridin]-6-yl)piperidin-4-yl)amino)methyl) phenyl)-N-hydroxyacrylamide trifluoroacetate] | 0.74 nM |  |  |  |  |  |  | 4.2 nM | 76.3 nM | 112 nM | 71.3 nM
9 | COc1ccc(-c2cnc(N3CCC(NCc4ccc5cc(C(=O)NO)sc5c4)CC3)c(C#N)c2-c2ccc(C#N)c(F)c2)cc1O [Example 126, 6-(1-(3-Cyano-4-(4-cyano-3-fluorophenyl)-5-(3-hydroxy-4-methoxyphenyl)pyridin-2-yl)piperidin-4-yl)amino)methyl)-N-hydroxybenzothio phene-2-carboxamide formate] | 1.11 nM | 1.76 nM | 284 nM | 715 nM | 280 nM | 197 nM | 132 nM |  |  |  | 

Continued, values first:

Row | IC50 (LSD1) | IC50 (NCI-H1417 cells; [1]) | IC50 (NCI-H69 cells; [2]) | IC50 (DU145 cells; [3]) | IC50 (NCI-H526 cells; Homo sapiens, NCI-H526, 120 h) | IC50 (pan-HDAC) | IC50 (HDAC8) | IC50 (NCI-H1417 cells; [4]) | IC50 (NCI-H69 cells; [5]) | IC50 (DU145 cells; [6]) | IC50 (NCI-H526 cells) | SMILES
10 | 1.8 nM | 7.59 nM | 4.73 nM | 4.24 nM | 4.61 nM |  |  |  |  |  |  | N#Cc1ccc(-c2c(-c3ccc4cn[nH]c4c3)cnc(N3CCC(NCc4ccc(/C=C/C(=O)NO)cc4)CC3)c2C#N)cc1F [Example 142, (E)-3-(4-(((1-(3-Cyano-4-(4-cyano-3-fluorophenyl)-5-(1H-indazol-6-yl)pyridin-2-yl)piperidin-4-yl)amino)methyl)phenyl)-N-hydroxyacrylamide formate]
11 | 3.35 nM | 18.6 nM | 39.3 nM | 37.8 nM |  | 5.23 nM | 74.9 nM |  |  |  |  | N#Cc1ccc(-c2c(-c3ccc(OC(F)F)c(O)c3)cnc(N3CCC(NCc4cnc(/C=C/C(=O)NO)nc4)CC3)c2C#N)cc1F [Example 145, (E)-3-(5-(((1-(3-Cyano-4-(4-cyano-3-fluorophenyl)-5-(4-(difluoromethoxy)-3-hydroxyphenyl)pyridin-2-yl)piperidin-4-yl)amino)methyl)pyrimidin-2-yl)-N-hydroxyacrylamide formate]
12 |  | 2.64 nM | 13.1 nM | 21.8 nM | 6.22 nM |  |  |  |  |  |  | Cc1ccc(-c2cnc(N3CCC(NCc4cnc(/C=C/C(=O)NO)nc4)CC3)c(C#N)c2-c2ccc(C#N)c(F)c2)cc1O [Example 148, (E)-3-(5-(((1-(3-Cyano-4-(4-cyano-3-fluorophenyl)-5-(3-hydroxy-4-methylphenyl)pyridin-2-yl)piperidin-4-yl)amino)methyl)pyrimidin-2-yl)-N-hydroxyacrylamide formate]
13 |  | 2.08 nM | 23.6 nM | 33.9 nM | 14.5 nM |  |  |  |  |  |  | COc1ccc(-c2cnc(N3CCCC(NCc4ccc(/C=C/C(=O)NO)cc4)CC3)c(C#N)c2-c2ccc(C#N)c(F)c2)cc1O (centres unmarked) [Example 149, (E)-3-(4-(((1-(3-Cyano-4-(4-cyano-3-fluorophenyl)-5-(3-hydroxy-4-methoxyphenyl)pyridin-2-yl)azepan-4-yl)amino)methyl)phenyl)-N-hydroxyacrylamide formate]
14 | 2.7 nM | 10.4 nM | 189 nM | 308 nM |  | 27.4 nM | 618 nM |  |  |  |  | COc1ccc(-c2cnc(N3CCC(NCc4ncc(/C=C/C(=O)NO)s4)CC3)c(C#N)c2-c2ccc(C#N)c(F)c2)cc1O [Example 151, (E)-3-(2-(((1-(3-Cyano-4-(4-cyano-3-fluorophenyl)-5-(3-hydroxy-4-methoxyphenyl)pyridin-2-yl)piperidin-4-yl)amino)methyl)thiazol-5-yl)-N-hydroxyacrylamide hydrochloride]
15 | 1.15 nM | 4.91 nM | 208 nM | 223 nM |  | 2.57 nM | 131 nM |  |  |  |  | COc1ccc(-c2cnc(N3CCC(NCc4cnc(CCC(=O)NO)nc4)CC3)c(C#N)c2-c2ccc(C#N)c(F)c2)cc1O [Example 152, 3-(5-((1-(3-Cyano-4-(4-cyano-3-fluorophenyl)-5-(3-hydroxy-4-methoxyphenyl)pyridin-2-yl)piperidin-4-yl)amino)methyl) pyrimidin-2-yl)-N-hydroxypropanamide hydrochloride]
16 | 963 nM | 0.74 nM | 639 nM | 2030 nM |  | 40.2 nM | 581 nM |  |  |  |  | COc1ccc(-c2cnc(N3CCC(NC(=O)CCCCCCC(=O)NO)CC3)c(C#N)c2-c2ccc(C#N)c(F)c2)cc1O [Example 177, N^1-(1-(3-Cyano-4-(4-cyano-3-fluorophenyl)-5-(3-hydroxy-4-methoxyphenyl)pyridin-2-yl)piperidin-4-yl)-N^8-hydroxyoctanediamide formate]
